Experimental findings from PubChem BioAssay AID1963597 (National Center for Advancing Translational Sciences (NCATS), 2024) are described below.

This series concerns human liver microsomes, metabolic stability half-life. The series is described as follows: NCATS Human Liver Microsomal (HLM) Stability Profiling. As to conditions: higher = more stable; screened at 1 µM (by protocol). An excerpt:
Assay submitter (PI): Dr. Pranav Shah
NIH Center for Advancing Translational Sciences
Pharmacokinetic issues were the leading cause of drug attrition, accounting for approximately 40% of all cases before the turn of the century. To this end, several high-throughput in vitro assays like microsomal stability have been developed to evaluate the pharmacokinetic profiles of compounds in early stages of drug discovery. At NCATS, a single-point rat liver microsomal (RLM) stability assay is used as a Tier I assay, while human liver microsomal (HLM) stability is employed as a Tier II assay. While it is beneficial to have compound libraries screened for HLM stability, the increasing magnitude of hits routinely generated, and the time- and re-source-intensive nature of the assay makes it important to find alternatives. One strategy is to rely on in silico models that have been developed using data generated from these assays. Herein, we describe the development of an HLM stability prediction model using our in-house dataset of ~7,000 compounds, employing both traditional and advanced machine learning methods. Additionally, the strong correlation between our RLM and HLM data was further reinforced by the fact that our HLM model performance improved after adding RLM stability predictions as an input descriptor. […] The best model along with a subset of our dataset has been made publicly accessible on the NCATS@ADME website for the benefit of the greater drug discovery community.
Microsomal Stability Assay
The substrate depletion method, also called the in vitro t1/2 method was used to analyze test compounds. Incubation and liquid handling were carried out using a previously described method (Shah et al., 2016). Briefly, each reaction mixture (110 µL) consisted of a test article (1 µM), human liver microsomes (0.5 mg/mL), and NADPH regenerating system in phosphate buffer at pH 7.4. Samples were incubated in 384-well plates at 37 degrees C for 0, 5, 10, 15, 30 and 60 min. At each time point, 10 µL of the incubation mixture was aspirated into another 384-well plate which contained cold acetonitrile (ACN) with internal standard (albendazole). All plates were centrifuged at 3000 rpm for 20 min at 4 degrees C, and the supernatants were transferred to a 384-well injection plate. Sample quantification and analysis was performed using a previously described method (Shah et al., 2016, Siramshetty et al., 2020).
1: Shah, P. et al. An Automated High-Throughput Metabolic Stability Assay Using an Integrated High-Resolution Accurate Mass Method and Automated Data Analysis Software. Drug Metab Dispos 44, 1653-1661 (2016).
2: Siramshetty et al. Retrospective assessment of rat liver microsomal stability at NCATS: data and QSAR models. Sci Rep 26;10(1):20713 (2020).
With `CC1=C(C(=O)Nc2cc3cn[nH]c3cc2F)C(c2ccc(Cl)cc2F)N=C(c2ccnc(Cl)c2)N1` (stereo unspecified), the half-life amounted to 14.2 min. Under `CC(C)(C)Oc1ccc(OCC2Cc3ccccc3CN2C(=O)c2cccc3ccccc23)cc1` (stereo unspecified) stands 5.19 min; under `N[C@@H](CC(=O)Nc1ccc(Oc2cc(F)c(F)cc2Br)cc1)C(=O)O`, above 120 min; under `O=C(O)c1ccccc1-c1c2cc(Br)c(=O)c(Br)c-2oc2c(Br)c(O)c(Br)cc12`, above 120 min. In the case of `c1ccc(-c2cnc(Nc3ccc(OCCN4CCCC4)cc3)s2)cc1`, the half-life amounted to 103 min. `O=C(CCC1CCN(Cc2ccccc2)CC1)c1ccc2c(c1)NCCCC2` had a half-life of 5.22 min. `COc1cc(-c2nn(C3CCC(N4CCN(C(C)=O)CC4)CC3)c3ncnc(N)c23)ccc1NC(=O)c1cc2ccccc2n1C` (stereo unspecified) had a half-life above 120 min.

For the molecule `O=C(O)c1cccc(CN2C(=O)/C(=C(\c3ccccc3)c3ccc(Cl)cc3)c3ccccc32)c1`, the half-life was above 120 min. In the case of `COc1cc(Nc2nc3ccccc3nc2NS(=O)(=O)c2ccc(NC(=O)c3ccc(C)c(OC)c3)cc2)cc(OC)c1`, the half-life is above 120 min. Consider `CN1CCC(Nc2ncc3ncnc(Nc4ccc(F)c(Cl)c4)c3n2)CC1`, for which the half-life is 116 min. `Cc1cccc(C)c1OCC(C)N` (stereo unspecified) gave a half-life of 114 min.

The molecule `COc1ccc(Cn2c(SCc3ccc(C(=O)NC4CCCC4)cc3)nc3ccncc32)cc1` displayed a half-life of 14.5 min. As to `CCNc1nc(Cl)nc(NCC)n1`, the half-life was 59.4 min. For `CCC(C)(C)c1ccc(CC(C)CN2C[C@@H](C)O[C@@H](C)C2)cc1` (stereo partly specified), the half-life was found to be 12.2 min. Molecule `OC1(c2ccc(Cl)cc2)c2ccccc2C2=NCCN21` (stereo unspecified) gave a half-life of 74.4 min. Molecule `Cc1cc(-c2ncc(CC(=O)Nc3ccc(-c4cnccn4)cn3)cc2C)ccn1` yielded a half-life of 36.4 min.

As to `NC(=O)c1ccccc1O`, the half-life is above 120 min. Molecule `CNc1nccc(-c2cccnc2Oc2cc(C(=O)Nc3cccc(C(F)(F)F)c3)ccc2C)n1` came in with a half-life of 11.3 min. For `O=c1cc(OCc2ccc(F)cc2)ccn1-c1ccc(OCCN2CCCC2)cc1`, the half-life is above 120 min. To `CCCCOCc1cc(CN2CCN(c3cccc(Cl)c3)CC2)c(O)c2ncccc12` belongs 10.3 min; to `CC(=O)OCC(=O)[C@@]1(O)CC[C@H]2[C@@H]3CCC4=CC(=O)C=C[C@]4(C)[C@@]3(F)[C@@H](O)C[C@@]21C`, 87.5 min. For the molecule `N#Cc1ccc(C(=O)Nc2ccc(Cl)c(-c3nc4cc(Cl)ccc4o3)c2)c(F)c1`, the half-life turned out to be 15.4 min. As for `O=c1[nH]c([C@@H]2CCCN2)nc2c1oc1ccc(Cl)cc12`, the half-life is above 120 min. Take `C[C@H]1COc2c(C3(N)CC3)c(F)cc3c(=O)c(C(=O)O)cn1c23`: the half-life was above 120 min.

Regarding `O=C(NCCN1CCN(c2cccc3c2OCCO3)CC1)c1ccc(F)cc1`, the half-life is 34.2 min.

Regarding `CN1CCC(=C2c3ccccc3CCc3cccnc32)CC1`, the half-life is above 120 min. Under `CCOc1ccc(-c2cc(NC(=O)Nc3ccccc3Cl)c(C(=O)OC)s2)cc1` stands 47.8 min; under `CCN1C(=O)c2ccccc2C1Nc1ccc(OCCN2CCCCC2)cc1` (stereo unspecified), 105 min; under `Cc1ccccc1C(C(=O)NC1CCCCC1)N(C(=O)CNc1ccc(C#N)cc1)c1cccc(F)c1` (stereo unspecified), 2.58 min. `C[C@H]1CN(CC[C@H](O)C2CCCCC2)CC[C@@]1(C)c1cccc(O)c1` yielded a half-life of 6.75 min. In turn, `Fc1ccc(CN2CCC(Nc3ccc(C(F)(F)F)nn3)CC2)cc1F` had a half-life of 42.3 min. Take `CCn1ccnc1C[C@@H]1COc2ccccc2O1`: the half-life is 55.3 min. `Cc1ccc(C(=O)c2cc(O)c(O)c([N+](=O)[O-])c2)cc1` came in with a half-life of 34.1 min. To `CCN(CC)C(C)C(=O)c1ccccc1` (stereo unspecified) belongs above 120 min. For `CC(C)(C)c1ccc(-c2nc3c(N4CCN(Cc5ccc6nccnc6c5)CC4)cccc3[nH]2)cc1`, the half-life was 20.5 min.

Take `CC(=O)N1CCC(Cc2ccc(C(=O)NC3CC3)cc2)CC1`: the half-life is above 120 min. With `C[C@@H](N)c1ccc(C(=O)Nc2ccnc3[nH]ccc23)cc1`, the half-life was above 120 min. Regarding `C/C(=C(/OCCOc1ccc(Cl)cc1)c1ccc(Cl)cc1Cl)n1ccnc1`, the half-life is 10.1 min. `Cc1cccc(NC(c2ccccc2F)c2ccc3ccc(C)nc3c2O)n1` (stereo unspecified): the half-life is 14.1 min. To `O=C(O)c1ccc2[nH]cc(CCCCN3CC=C(c4ccccc4)CC3)c2c1` belongs above 120 min; to `O=C(O)c1cn(C2CC2)c2cc(Cl)c(F)cc2c1=O`, above 120 min. Under `Cc1cc(C(C)(C)C)c(O)c(C(C)(C)C)c1` stands above 120 min; under `Cc1ccc(C(=O)N2CCc3cc(CNS(=O)(=O)c4cccs4)ccc32)cc1`, 5.17 min. For `Nc1ncnc2c1ncn2[C@@H]1O[C@H](CO)[C@@H](O)[C@@H]1O`, the half-life is above 120 min. `c1ccc(-c2csc(N3CCOCC3)n2)cc1` gave a half-life of 3.95 min. Under `c1ccc(C2CC2)c(OCC2=NCCN2)c1` stands above 120 min; under `O=c1cc(N2CCOCC2)oc2c(-c3cccc(F)c3)nccc12`, 34.5 min. In turn, `COc1ccc(CNC(=O)c2cnn(-c3ccc(C)cc3)c2C2CCN(C(=O)OC(C)(C)C)CC2)cc1` showed a half-life of 0.7 min. As for `CCOC(=O)C(c1c(O)c2ccccc2oc1=O)c1c(O)c2ccccc2oc1=O`, the half-life was found to be 10.3 min. To `CCOC(=O)c1cccnc1` belongs 9.43 min.

Turning to `COc1cc(=O)n2c(c1C(=O)NCc1ccc3c(c1)OCO3)CCN(C(=O)c1ccc(C)cc1C)CC2`, the half-life stood at 34.4 min. Under `O[C@@H]1CO[C@H]2[C@@H]1OC[C@@H]2O` stands above 120 min; under `CC(C)Oc1ccc2c(=O)c(-c3ccccc3)coc2c1`, 16.1 min; under `COc1ccc(NC(=O)Cn2cc(C(=O)c3cccs3)c3ccccc32)cc1`, 16.6 min. For `CC1(C#N)CCN(c2c(C(=O)N3CCC(S(C)(=O)=O)CC3)cnc3cc(F)c(F)cc23)CC1`, the half-life is above 120 min. Under `CC(=O)c1ccc(C(=O)N(Cc2cccnc2)c2nc3c(C)c(C)ccc3s2)cc1` stands 6.25 min. As for `C[C@]12CCC3c4ccc(O)cc4C[C@@H](CCCCCCCCCS(=O)CCCC(F)(F)C(F)(F)F)[C@H]3[C@@H]1CC[C@@H]2O` (stereo partly specified), the half-life was determined as 4.1 min. As for `CC1(C)O[C@@H]2C[C@H]3[C@@H]4C[C@H](F)C5=CC(=O)CC[C@]5(C)[C@H]4[C@@H](O)C[C@]3(C)[C@]2(C(=O)CO)O1`, the half-life is 18 min.

With `Cc1cc(C(=O)N2CCCCc3ccccc32)ccc1CNC(=O)N1CCC[C@H]1C(=O)N(C)C`, the half-life came to 6.54 min.

For `O=C(O)Cn1nnc(-c2cc(N3CCC(Oc4cc(F)ccc4Br)CC3)no2)n1`, the half-life is above 120 min. In turn, `COc1cc2nc(=NC(=O)c3cccnc3)n3c(c2cc1OC)NCC3` registered a half-life of 45 min. `CN(C)C(CCOc1cccc2ccccc12)c1ccccc1` (stereo unspecified): the half-life amounted to 12.8 min. Under `O=c1c(-c2ccccc2)c1-c1ccccc1` stands 3.57 min; under `CC1(C)CCC(CN2CCN(c3ccc(C(=O)NS(=O)(=O)c4ccc(NCC5CCOCC5)c([N+](=O)[O-])c4)c(Oc4cnc5[nH]ccc5c4)c3)CC2)=C(c2ccc(Cl)cc2)C1`, 32.8 min; under `Cc1ccc(Nc2nc3ccccc3c3nnc(C)n23)c(C)c1`, 6.47 min. As to `CC1=C(C(=O)Nc2cccc(CN)c2)C(c2ccccc2Cl)N=C(Nc2nc3ccccc3o2)N1` (stereo unspecified), the half-life was above 120 min. In turn, `O=C(Nc1cccc(C(F)(F)F)c1)Nc1cc(S(=O)(=O)NC2CC2)ccc1-c1ccsc1` displayed a half-life of 4.46 min. `OC1(c2ccc(Cl)cc2)CCNCC1` had a half-life above 120 min. Under `C#CCN(Cc1cc2c(=O)[nH]c(C)nc2cc1Br)c1ccc(C(=O)NCc2cccnc2)cc1` stands 9.7 min; under `c1ccc(N2CCN(CCc3nn[nH]n3)CC2)cc1`, above 120 min.

`C=CC(=O)Nc1cccc(CN2C(=O)N(c3c(Cl)c(OC)cc(OC)c3Cl)Cc3cnc(NCCCCN(CC)CC)nc32)c1` had a half-life of 43 min. `COc1cc2c(Oc3ccc(-c4cnc(Nc5ccc(F)cc5)n(C)c4=O)cc3F)ccnc2cc1OCCCN1CCOCC1` registered a half-life of 30.6 min. To `COCCc1ccc(OC[C@H](O)CNC(C)C)cc1` belongs above 120 min; to `Cc1cccc(C)c1NC(=O)Nc1cccs1`, 80.6 min.

In the case of `Cn1c(N2CCCCS2(=O)=O)nc(C(=O)NCc2ccc(F)cc2)c(O)c1=O`, the half-life is above 120 min. Molecule `CCc1ccc(-n2c(SCc3cccc(F)c3)nc3[nH]ncc3c2=O)cc1` had a half-life of 80.5 min.
